Among the data in patent US10059701B2 (Merck Patent GmbH, priority 2015, dated 2018) are IC50 values, retold here.

Each structure is given as a SMILES string.

For one assay, the target named is T1, IRAK1 (Homo sapiens, UniProt P51617).
T1 construct: His-TEV-IRAK1 (194-712); His (N); TEV cleavage site (N)
The assay is described as follows: IRAK1 enzymatic assay (ADP-Glo luminescence). Type of assay: biochemical. Particulars: purified human recombinant His-TEV-IRAK1 (194-712). An outline of the steps: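 Recombinant human His-TEV-IRAK1 (194-712), 0.3 μg/ml, preincubated 15 min at RT with compounds (10 μM to 0.5 nM) in 50 mM Hepes pH 7.0, 10 mM MgCl2, 2 mM DTT, 0.1% BSA. ATP-started reaction run 2 hours at RT; ADP formed from ATP hydrolysis/autophosphorylation read by ADP-Glo luminescence.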

The target of a further assay is T2, IRAK4 (Homo sapiens, UniProt Q9NWZ3).
T2 construct: His-TEV-IRAK4 (1-460); His (N); TEV cleavage site (N)
T2 sequence (Q9NWZ3 1-460): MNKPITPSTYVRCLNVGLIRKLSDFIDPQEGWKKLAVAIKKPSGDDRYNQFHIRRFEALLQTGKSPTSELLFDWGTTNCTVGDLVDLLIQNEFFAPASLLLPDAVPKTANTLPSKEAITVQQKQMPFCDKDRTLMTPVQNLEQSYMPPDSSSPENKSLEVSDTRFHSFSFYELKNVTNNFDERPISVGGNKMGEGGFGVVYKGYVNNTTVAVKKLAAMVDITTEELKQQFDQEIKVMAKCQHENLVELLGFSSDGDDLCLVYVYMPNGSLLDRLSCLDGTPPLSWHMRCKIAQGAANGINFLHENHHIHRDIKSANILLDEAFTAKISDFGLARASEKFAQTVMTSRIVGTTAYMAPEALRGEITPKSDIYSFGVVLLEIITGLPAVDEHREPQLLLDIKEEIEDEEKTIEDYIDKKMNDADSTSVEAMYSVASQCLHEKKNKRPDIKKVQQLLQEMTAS
The assay is described as follows: IRAK4 enzymatic assay (ADP-Glo luminescence). Type of assay: biochemical. The note with it: purified human recombinant His-TEV-IRAK4 (1-460), ATP 2 μM. The gist of the method: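 Recombinant His-TEV-IRAK4 (1-460) at 0.3 μg/ml preincubated 15 min at RT with compounds (10 μM to 0.5 nM) in Hepes pH 7.0 buffer with MgCl2/MnCl2. Reaction started with 2 μM ATP and 300 nM STK1-biotin peptide, run 2 h at RT. ADP formed read by ADP-Glo luminescence.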

T1 sequence (P51617 194-712): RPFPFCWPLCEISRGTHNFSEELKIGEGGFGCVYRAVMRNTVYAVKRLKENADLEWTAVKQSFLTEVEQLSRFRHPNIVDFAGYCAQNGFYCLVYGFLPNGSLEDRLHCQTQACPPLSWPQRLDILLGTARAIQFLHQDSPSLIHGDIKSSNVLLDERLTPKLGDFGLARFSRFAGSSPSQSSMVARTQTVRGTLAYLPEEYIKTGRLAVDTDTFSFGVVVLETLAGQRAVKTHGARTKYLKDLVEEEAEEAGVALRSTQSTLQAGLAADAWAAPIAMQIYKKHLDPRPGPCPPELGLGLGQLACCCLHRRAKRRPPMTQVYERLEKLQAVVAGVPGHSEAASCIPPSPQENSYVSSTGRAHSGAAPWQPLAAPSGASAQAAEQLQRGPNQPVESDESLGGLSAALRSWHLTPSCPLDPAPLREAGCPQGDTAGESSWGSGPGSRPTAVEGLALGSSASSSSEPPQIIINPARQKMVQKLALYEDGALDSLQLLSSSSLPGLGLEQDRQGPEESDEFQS

Consider `O=C(/N=c1\[nH]c2cc(N3CCCOC3=O)ccc2n1CC1(O)CCCC1)c1cccc(C(F)(F)F)c1` [Compound 162, (E)-N-(1-((1-hydroxycyclopentyl)methyl)-5-(2-oxo-1,3-oxazinan-3-yl)-1H-benzo[d]imidazol-2(3H)-ylidene)-3-(trifluoromethyl)benzamide], for which the IC50 on IRAK1 and on IRAK4 was ≤ 100 nM each time.
As for `O=C(/N=c1\[nH]c2cc(N3CCOCC3=O)ccc2n1CCCO)c1cccc(-c2ccn(CC(F)(F)F)c(=O)c2)c1` [Compound 163, (E)-N-(1-(3-hydroxypropyl)-5-(3-oxomorpholino)-1H-benzo[d]imidazol-2(3H)-ylidene)-3-(2-oxo-1-(2,2,2-trifluoroethyl)-1,2-dihydropyridin-4-yl)benzamide], the figures for the IC50 on IRAK1 and on IRAK4 were 100 to 1000 nM and ≤ 100 nM, respectively.
For the molecule `O=C(/N=c1\[nH]c2cc(N3CCOCC3=O)ccc2n1CCCO)c1cccc(-c2ccn(C(F)F)c(=O)c2)c1` [Compound 164, (E)-3-(1-(difluoromethyl)-2-oxo-1,2-dihydropyridin-4-yl)-N-(1-(3-hydroxypropyl)-5-(3-oxomorpholino)-1H-benzo[d]imidazol-2(3H)-ylidene)benzamide], the IC50 is 100 to 1000 nM at IRAK1 and ≤ 100 nM at IRAK4.
Consider `CN1CCC(n2/c(=N/C(=O)c3cccc(C(F)F)c3)[nH]c3cc(N4CCOCC4=O)ccc32)CC1` [Compound 165, (E)-3-(difluoromethyl)-N-(1-(1-methylpiperidin-4-yl)-5-(3-oxomorpholino)-1H-benzo[d]imidazol-2(3H)-ylidene)benzamide], for which the IC50 at IRAK1 and at IRAK4 was 100 to 1000 nM each time.
As to `O=C(O)CCn1/c(=N/C(=O)c2cccc(C(F)(F)F)c2)[nH]c2cc(N3CCOCC3=O)ccc21` [Compound 166, (E)-3-(5-(3-oxomorpholino)-2-((3-(trifluoromethyl)benzoyl)imino)-2,3-dihydro-1H-benzo[d]imidazol-1-yl)propanoic acid], the IC50 is > 1000 nM at IRAK1 and ≤ 100 nM on IRAK4.
For `O=C(O)Cn1/c(=N/C(=O)c2cccc(C(F)(F)F)c2)[nH]c2cc(N3CCOCC3=O)ccc21` [Compound 167, (E)-2-(5-(3-oxomorpholino)-2-((3-(trifluoromethyl)benzoyl)imino)-2,3-dihydro-1H-benzo[d]imidazol-1-yl)acetic acid], in that order: > 1000 nM and > 1000 nM.
With `O=C(O)CCCn1/c(=N/C(=O)c2cccc(C(F)(F)F)c2)[nH]c2cc(N3CCCOC3=O)ccc21` [Compound 168, (E)-4-(5-(2-oxo-1,3-oxazinan-3-yl)-2-((3-(trifluoromethyl)benzoyl)imino)-2,3-dihydro-1H-benzo[d]imidazol-1-yl)butanoic acid], the figures for the IC50 at IRAK1 and on IRAK4 were > 1000 nM and ≤ 100 nM, respectively.
For `O=C(O)CCCn1/c(=N/C(=O)c2cccc(C(F)F)c2)[nH]c2cc(N3CCCOC3=O)ccc21` [Compound 169, (E)-4-(2-((3-(difluoromethyl)benzoyl)imino)-5-(2-oxo-1,3-oxazinan-3-yl)-2,3-dihydro-1H-benzo[d]imidazol-1-yl)butanoic acid], the IC50 is > 1000 nM on IRAK1 and ≤ 100 nM on IRAK4.
For `O=C(/N=c1\[nH]c2cc(N3CCCOC3=O)ccc2n1C1CCC1)c1cccc(C(F)(F)F)c1` [Compound 170, (E)-N-(1-cyclobutyl-5-(2-oxo-1,3-oxazinan-3-yl)-1H-benzo[d]imidazol-2(3H)-ylidene)-3-(trifluoromethyl)benzamide], in that order: > 1000 nM and ≤ 100 nM.
As for `O=C(/N=c1\[nH]c2cc(N3CCCOC3=O)ccc2n1C1CCCC1)c1cccc(C(F)(F)F)c1` [Compound 171, (E)-N-(1-cyclopentyl-5-(2-oxo-1,3-oxazinan-3-yl)-1H-benzo[d]imidazol-2(3H)-ylidene)-3-(trifluoromethyl)benzamide], the results for the IC50 on IRAK1 and on IRAK4 were > 1000 nM and ≤ 100 nM, respectively.
As to `O=C(/N=c1\[nH]c2cc(N3CCCOC3=O)ccc2n1C1CC1)c1cccc(C(F)(F)F)c1` [Compound 172, (E)-N-(1-cyclopropyl-5-(2-oxo-1,3-oxazinan-3-yl)-1H-benzo[d]imidazol-2(3H)-ylidene)-3-(trifluoromethyl)benzamide], the IC50 is > 1000 nM on IRAK1 and ≤ 100 nM at IRAK4.
Take `CC(C)(C)Cn1/c(=N/C(=O)c2cccc(C(F)(F)F)c2)[nH]c2cc(N3CCCOC3=O)ccc21` [Compound 173, (E)-N-(1-neopentyl-5-(2-oxo-1,3-oxazinan-3-yl)-1H-benzo[d]imidazol-2(3H)-ylidene)-3-(trifluoromethyl)benzamide]: the half-inhibitory concentration (IC50) at IRAK1 is 100 to 1000 nM; on IRAK4 it was ≤ 100 nM.
For the molecule `O=C(/N=c1\[nH]c2cc(N3CCCOC3=O)ccc2n1CC1(C(=O)O)CC1)c1cccc(C(F)(F)F)c1` [Compound 174, (E)-1-((5-(2-oxo-1,3-oxazinan-3-yl)-2-((3-(trifluoromethyl)benzoyl)imino)-2,3-dihydro-1H-benzo[d]imidazol-1-yl)methyl)cyclopropanecarboxylic acid], the IC50 on IRAK1 was 100 to 1000 nM; at IRAK4, ≤ 100 nM.
For `C#CCn1/c(=N/C(=O)c2cccc(C(F)(F)F)c2)[nH]c2cc(N3CCCOC3=O)ccc21` [Compound 175, (E)-N-(5-(2-oxo-1,3-oxazinan-3-yl)-1-(prop-2-yn-1-yl)-1H-benzo[d]imidazol-2(3H)-ylidene)-3-(trifluoromethyl)benzamide], in that order: 100 to 1000 nM and ≤ 100 nM.
`O=C(/N=c1\[nH]c2cc(N3CCCOC3=O)ccc2n1CCC(F)(F)F)c1cccc(C(F)(F)F)c1` [Compound 176, (E)-N-(5-(2-oxo-1,3-oxazinan-3-yl)-1-(3,3,3-trifluoropropyl)-1H-benzo[d]imidazol-2(3H)-ylidene)-3-(trifluoromethyl)benzamide]: the IC50 on IRAK1 is 100 to 1000 nM; on IRAK4 it was ≤ 100 nM.
On the same counts, the results for `O=C(/N=c1\[nH]c2cc(N3CCCOC3=O)ccc2n1CC(F)(F)C(F)(F)F)c1cccc(C(F)(F)F)c1` [Compound 177, (E)-N-(5-(2-oxo-1,3-oxazinan-3-yl)-1-(2,2,3,3,3-pentafluoropropyl)-1H-benzo[d]imidazol-2(3H)-ylidene)-3-(trifluoromethyl)benzamide] are > 1000 nM and ≤ 100 nM.
With `CC(C)(F)Cn1/c(=N/C(=O)c2cccc(C(F)(F)F)c2)[nH]c2cc(N3CCCOC3=O)ccc21` [Compound 178, (E)-N-(1-(2-fluoro-2-methylpropyl)-5-(2-oxo-1,3-oxazinan-3-yl)-1H-benzo[d]imidazol-2(3H)-ylidene)-3-(trifluoromethyl)benzamide], the 50% inhibitory concentration (IC50) at IRAK1 is 100 to 1000 nM; at IRAK4 it was ≤ 100 nM.
On the same counts, the results for `CC(F)(F)Cn1/c(=N/C(=O)c2cccc(C(F)(F)F)c2)[nH]c2cc(N3CCCOC3=O)ccc21` [Compound 179, (E)-N-(1-(2,2-difluoropropyl)-5-(2-oxo-1,3-oxazinan-3-yl)-1H-benzo[d]imidazol-2(3H)-ylidene)-3-(trifluoromethyl)benzamide] are 100 to 1000 nM and ≤ 100 nM.
As to `O=C(/N=c1\[nH]c2cc(N3CCCOC3=O)ccc2n1CC1CCCOC1)c1cccc(C(F)(F)F)c1` (centres unmarked) [Compound 180, (E)-N-(5-(2-oxo-1,3-oxazinan-3-yl)-1-((tetrahydro-2H-pyran-3-yl)methyl)-1H-benzo[d]imidazol-2(3H)-ylidene)-3-(trifluoromethyl)benzamide], the IC50 is 100 to 1000 nM on IRAK1 and ≤ 100 nM at IRAK4.
On the same counts, the results for `O=C(/N=c1\[nH]c2cc(N3CCCOC3=O)ccc2n1CC1CCCCC1)c1cccc(C(F)(F)F)c1` [Compound 181, (E)-N-(1-(cyclohexylmethyl)-5-(2-oxo-1,3-oxazinan-3-yl)-1H-benzo[d]imidazol-2(3H)-ylidene)-3-(trifluoromethyl)benzamide] are > 1000 nM and ≤ 100 nM.
On the same counts, the results for `O=C(/N=c1\[nH]c2cc(N3CCN(C4CC4)CC3=O)ccc2n1CCCO)c1cccc(C(F)F)c1` [Compound 182, (E)-N-(5-(4-cyclopropyl-2-oxopiperazin-1-yl)-1-(3-hydroxypropyl)-1H-benzo[d]imidazol-2(3H)-ylidene)-3-(difluoromethyl)benzamide] are ≤ 100 nM and ≤ 100 nM.
As to `O=C(/N=c1\[nH]c2cc(N3CCN(C4CC4)CC3=O)ccc2n1CCCO)c1cccc(C(F)(F)F)c1` [Compound 183, (E)-N-(5-(4-cyclopropyl-2-oxopiperazin-1-yl)-1-(3-hydroxypropyl)-1H-benzo[d]imidazol-2(3H)-ylidene)-3-(trifluoromethyl)benzamide], the IC50 at IRAK1 and at IRAK4 was ≤ 100 nM each time.
